No end group written: not given here.
Target: T1, Rlig1-AMP (Homo sapiens, UniProt Q8N999)
T1 construct: made in house; host or cells: E. coli BL21 (DE3), pET15b-Rlig1
Assay: FRET-based high-throughput screening of inhibitors for Rlig1-AMP
Format: biochemical
Conditions: for Raw data [w Enyzm]: with enzyme; for Raw data [w/o Enzym]: without enzyme

[1] = HTS hits, MedChemExpress library
[2] = HTS hits, difference of raw data without and with enzyme
[3] = sheet HTS hits, MedChemExpress library
[4] = sheet HTS hits, difference of raw data w/o and w enzyme
[5] = HTS hits, difference of raw data w/o and w enzyme
[6] = HTS hits, normalised value of 1-D Distance
[7] = HTS hits, normalized value (npi)

T1 sequence (Q8N999 whole entry): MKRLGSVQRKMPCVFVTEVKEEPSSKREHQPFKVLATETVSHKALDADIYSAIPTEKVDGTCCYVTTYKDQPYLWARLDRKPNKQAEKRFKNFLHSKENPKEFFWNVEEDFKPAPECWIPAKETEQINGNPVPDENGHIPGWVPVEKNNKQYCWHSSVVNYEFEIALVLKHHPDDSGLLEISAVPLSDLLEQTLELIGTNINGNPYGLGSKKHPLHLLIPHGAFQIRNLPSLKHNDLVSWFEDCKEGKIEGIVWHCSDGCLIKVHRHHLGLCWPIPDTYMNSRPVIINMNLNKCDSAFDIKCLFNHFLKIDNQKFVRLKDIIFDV

Row | Compound | Raw data [w Enyzm] (HTS hits) | Raw data [w/o Enzym] (HTS hits) | 1-D Distance [5] | 1-D Distance.npi [6] | further results
1 | O=C(NCCCCCCCCCC[P+](c1ccccc1)(c1ccccc1)c1ccccc1)c1nn(Cc2ccc(Cl)cc2Cl)c2ccccc12.[Br-] [Mito-LND] | 5993 | 4259 | – | – | 1-D Distance.npi [1]: 74.0964; 1-D Distance [2]: 1734
2 | C=CC1=C(C)c2cc3[n-]c(cc4nc(cc5[n-]c(cc1n2)c(C)c5C=C)C(C)=C4CCC(=O)O)c(CCC(=O)O)c3C.[Cl-].[Fe+3] [Hemin] | – | – | – | – | 1-D Distance.npi [3]: 76.0753; 1-D Distance [4]: 1716; Raw data [w Enyzm] (sheet HTS hits): 4406; Raw data [w/o Enzym] (sheet HTS hits): 6122
3 | C=C1C(=O)O[C@@H]2[C@H]3C(C)=CC[C@@]34O[C@@]4(C)CC[C@@H]12 [Arglabin] | 8885 | 10558 | 1673 | – | –
4 | NC[C@@H]1O[C@H](O[C@H]2[C@@H](O)[C@H](O[C@@H]3[C@@H](O)[C@H](N)C[C@H](N)[C@H]3O[C@H]3O[C@H](CN)[C@@H](O)[C@H](O)[C@H]3N)O[C@@H]2CO)[C@H](N)[C@@H](O)[C@@H]1O.O=S(=O)(O)O [Neomycin (sulfate)] | 7973 | 8455 | 482 | 97.3447 | –
5 | O=c1[nH]c(=O)c2ccccc2[nH]1 [Benzoyleneurea] | 9137 | 11028 | – | – | 1-D Distance.npi [1]: 70.2932; 1-D Distance [2]: 1891
6 | COc1c2c3c4c(c(OC)c(=O)c5c(O)cc(OC)c(c6c(OC)cc(O)c(c1=O)c63)c54)[C@@H](C(C)=O)[C@@](C)(O)C2 [Hypocrellin A] | 1866 | 3045 | 1179 | – | –
7 | O=C(O)CCCN1CCC(O[C@@H](c2ccc(Cl)cc2)c2ccccn2)CC1.O=S(=O)(O)c1ccccc1 [Bepotastine (besilate)] | – | – | – | – | 1-D Distance.npi [3]: 70.3956; 1-D Distance [4]: 1900; Raw data [w Enyzm] (sheet HTS hits): 8762; Raw data [w/o Enzym] (sheet HTS hits): 10662
8 | CN1CCC=C(C(=O)O)C1 [Arecaidine] | 8786 | 10735 | 1949 | 71.9903 | –
9 | CN(C)c1ccc2nc3ccc(=[N+](C)C)cc-3sc2c1.O.O.O.[Cl-] [Methylene blue (trihydrate)] | 6070 | – | – | – | 1-D Distance.npi [1]: 83.8926; 1-D Distance [2]: 1051
10 | CN(C)CCSSCCNC(=O)C1CCN(C(=O)CSc2ccc(Cl)cc2)CC1.O=C(O)C(F)(F)F [6H05 (TFA)] | 8996 | 10770 | 1774 | 75.4127 | –
11 | C/C=C/c1cc(OC)c(OC)cc1OC [alpha-Asarone] | 8891 | 10653 | 1762 | 73.1231 | –
12 | Cn1ncnc2c(=O)n(C)c(=O)nc1-2 [Toxoflavin] | 16186 | 17205 | 1019 | – | 1-D Distance.npi [7]: 89.8188
13 | CC(C)=CC[C@H](O)C1=CC(=O)c2c(O)ccc(O)c2C1=O [(-)-Alkannin] | 3885 | – | – | – | 1-D Distance.npi [1]: 70.9637; 1-D Distance [2]: 1812
14 | COc1cc(/C=C/C(=O)NCC(O)c2ccc(O)cc2)ccc1O (stereo not drawn) [N-Feruloyloctopamine] | – | – | – | – | 1-D Distance.npi [3]: 70.0499; 1-D Distance [4]: 1918; Raw data [w Enyzm] (sheet HTS hits): 9094; Raw data [w/o Enzym] (sheet HTS hits): 11012
15 | Lactoferrin (17-41) (acetate) (TKCFQWQRNMRKVRGPPVSCIKRDS; ends and bridges not checked; also: acetate salt; UniProt P02788 36-60, looked up, fragment) | 8755 | 10176 | 1421 | 74.4696 | –
16 | COS(=O)(=O)[O-].COc1cccc2c1nc1ccccc1[n+]2C [Methoxy-PMS] | 4514 | 6611 | 2097 | – | 1-D Distance.npi [7]: 71.83
